According to US8106186B2, “Transition metal phosphine complex, method for producing same, and anticancer agent containing transition metal phospine complex” (Nippon Chemical Industrial Co., Ltd., priority 2005, dated 2012):

Tests used:
[1] = test system: HCS-4 (cells derived from human tongue cancer); test: Evaluation of anticancer property 2: MTT assay, tongue cancer cells; type: cell-based; settings: HCS-4, RPMI 1640+10% FBS, assayed as in Evaluation 1; read-out: IC50, Cell derived from human tongue cancer
Procedure: (§1) The number of viable cells was determined by a modified Mosmann method (T. Mosmann, J. Immunnol. Method (1983)65, 55-63). That is, a solution of a tetrazolium salt (3,[4,5-dimethylthiazole-2-yl]-2,5-diphenyltetrazolium bromide, MTT) was added thereto. The wells were cultured for another 3 hours under the same conditions. Formazan crystals formed by the enzyme activity of mitochondria in the cells were dissolved in 0.04 mol/HCl/isopropyl alcohol. The absorbance of each well was measured at 595 nm with a microplate reader (Bio-Rad 550). To remove the background, the absorbance of each well was measured at 630 nm. The absorbance at 630 nm was subtracted from the actual measured value. This is determined to be the number of viable cells. […] For the values shown in Table 3, each of Compounds 1 to 3 was assayed three times, and the average value was shown.
(§2) Compounds (2) and (3) obtained in Examples 2 and 3 were assayed as in Evaluation 1 with HCS-4 (cells derived from human tongue cancer, medium: RPMI 1640+10% FBS), COLO205 (cells derived from human colon, medium: RPMI-1640+10% FBS), and SH-10-TC (cells derived from human gastric cancer, medium: RPMI-1640+10% FBS).

[2] = test system: SH-10-TC (cells derived from human gastric cancer); test: Evaluation of anticancer property 2: MTT assay, gastric cancer cells; type: cell-based; settings: RPMI-1640+10% FBS, assayed as in Evaluation 1, read-out: IC50, Cell derived from human gastrict cancer
Procedure: as §1, §2

[3] = test system: female Sprauge-Dawley SPF rats (CrJ:CD (SD)); test: Toxicity test by single oral administration to rats; type: in vivo, rat; settings: for LD50: rats, single oral dose in corn oil, observed 14 days, from survival rate
Excerpt: After female Sprauge-Dawley SPF rats (CrJ:CD (SD)) were quarantined and acclimated for about a week, healthy 8-week-old rats were selected in groups of five rats.

[4] = test system: COLO205 (cells derived from human colon); test: Evaluation of anticancer property 2: MTT assay, colon cells; type: cell-based; settings: COLO205, RPMI-1640+10% FBS, assayed as in Evaluation 1; read-out: IC50, Cell derived from human colon
Procedure: as §1, §2

[5] = test system: Human acute myelocytic leukemia cells HL-60; test: Evaluation of anticancer property 1: MTT viable cell assay (modified Mosmann method); type: cell-based; settings: HL-60 cells, 24 hours culture, average of assays
Procedure: Human acute myelocytic leukemia cells cancer cells HL-60 was used as cancer cells. The cells were cultured in Rosewell Park Memorial Institute medium (RPMI 1640) supplemented with 10% fetal bovine serum, 1% antibiotic, and an antifungal agent in an atmosphere of 5% carbon dioxide in a moist incubator at 37° C.
Cells were washed with PBS. After the number of cells was determined, a suspension (1×10^6 cells/mL) was prepared with the same medium. The suspension was seeded in a sterile 96-well microplate at a density of 50,000 cells/well.
The wells were further cultured in the incubator for 24 hours.
The number of viable cells was determined by a modified Mosmann method (T. Mosmann, J. Immunnol. Method (1983)65, 55-63). […] The wells were cultured for another 3 hours under the same conditions. Formazan crystals formed by the enzyme activity of mitochondria in the cells were dissolved in 0.04 mol/HCl/isopropyl alcohol. The absorbance of each well was measured at 595 nm with a microplate reader (Bio-Rad 550). To remove the background, the absorbance of each well was measured at 630 nm. The absorbance at 630 nm was subtracted from the actual measured value. This is determined to be the number of viable cells.

Row | Substance | IC50 [1] [µM] | IC50 [2] [µM] | LD50 [3] | IC50 [4] [µM] | IC50 [5] [µM] | Death of rats, 100 mg/kg group ([3]; single oral dose 100 mg/kg, five rats, death at 5 days after administration) | Death of rats, 300 mg/kg group ([3]; single oral dose 300 mg/kg, five rats, deaths by day 2) | Death of rats, 20 and 50 mg/kg groups ([3]; single oral dose 20 and 50 mg/kg, five rats per group)
1 | bis((R,R)-1,2-bis(tert-butyl(2-pyridyl)phosphino)ethane)gold(I) chloride [Compound (3)] | 3.5 | 0.9 | 300 mg/kg or more | 1.5 | 3.58 | – | – | –
2 | bis(meso-1,2-bis(tert-butyl(2-pyridyl)phosphino)ethane)gold(I) chloride [Compound (2)] | 1.4 | 1.2 | 300 mg/kg or more | 2.2 | 5.13 | – | – | –
3 | bis[1,2-bis(phenyl(2-pyridyl)phosphino)ethane]gold(I) chloride [Compound (5), reference compound] | – | – | – | – | 3.56 | one rat died | three rats died | no death was observed
4 | bis(rac-1,2-bis(tert-butyl(2-pyridyl)phosphino)ethane)gold(I) chloride [Compound (1)] | – | – | 300 mg/kg or more | – | 4.51 | – | – | –
